Data reported in paper PMC5592744 (Frontiers in Microbiology, 2017).

Tests used:
Format in all cases: biochemical
Details in all cases: 76 μM chalcone, FRET assay
[1] = molecular target: V168A-SrtA (Staphylococcus aureus, UniProt Q2FV99, V168A)
[2] = molecular target: I182A-SrtA (Staphylococcus aureus, UniProt Q2FV99, I182A)
[3] = molecular target: R197A-SrtA (Staphylococcus aureus, UniProt Q2FV99, R197A)

Measured: sensitivity of mutant SrtA to chalcone compared with WT-SrtA

O=C(/C=C/c1ccccc1)c1ccccc1 [chalcone]
significantly less sensitive: [1] | [2] | [3]
